From patent US12109204B2, “Methods for treating muscular dystrophies” (The Regents of the University of California, priority 2018, dated 2024)
“Also recorded” adds a separate entry of the source.

Columns and labels:
Format in all cases: cell-based, murine
[1] = system: hSSPN-EGFP myotubes (human sarcospan promoter reporter in C2C12); experiment: hSSPN-EGFP reporter myotube assay (high-content imaging); details: for fluorescence intensity over vehicle, primary screen hit call: primary screen of 3,200 molecules, 5.5 μM, 48 hours, n=1, hit cutoff 1.4-fold; for hSSPN-EGFP RFU, Plate 1 / hSSPN-EGFP RFU, Plate 2: retest of screen hits at 5.5 μM; for hSSPN-EGFP RFU, Plate 1: Plate 1, n=24 per plate; for hSSPN-EGFP RFU, Plate 2: Plate 2, n=24 per plate
Procedure: (§1) C2C12 immortalized murine myoblasts cultured in growth media consisting of DMEM (Gibco) with 20% Fetal Bovine Serum (Sigma-Aldrich) at 37° C. with 5% CO2 were transfected with the hSSPN-EGFP or hSSPN-Luciferase linearized plasmids using Lipofectamine 3000 Transfection Reagent (Thermo Fisher Scientific). Transfected cells were selected using 800 μg/ml of G418 (Sigma-Aldrich) for 4 weeks to generate stable cell lines expressing reporter protein under control of the human SSPN promoter.
hSSPN-EGFP myoblasts were seeded at 500 cells per well in 50 μl of growth media in 384-well black, clear bottom microplates (Greiner) using a Multidrop 384 (Thermo Fisher Scientific) and incubated for 3 days. Upon reaching confluency, the growth media was replaced with 50 μl of differentiation media consisting of DMEM with 2% horse serum (Sigma-Aldrich) using an EL406 combination washer dispenser (Biotek). At day 2 of differentiation, the media on the cells was aspirated, left with a residual volume of 10 μl, and replaced with 30 μl of fresh differentiation media. 0.5 μl of small molecule in DMSO or DMSO alone (for vehicle and positive control wells) was added to each well using a Biomek Fx (Beckman). To ensure proper mixing of the DMSO, 50 μl of additional differentiation media was added to all wells except the positive control treated wells, which instead received 50 μl of media containing insulin transferrin selenium (ITS, Gibco) to reach a final concentration of 1% ITS. The final concentration of drug in each treated well was 5.5 μM in 0.55% DMSO and 0.55% DMSO for vehicle and positive control treated wells. After 48 hours of incubation, the media was replaced with Fluorobrite DMEM (Gibco) and each plate was imaged using ImageXpress Micro Confocal High Content Imaging System (Molecular Devices). The fluorescent intensity of imaged cells was determined using MetaXpress Analysis software (Molecular Devices). Analysis setting were as follows: top hat (size: 12, filter shape: circle), adaptive threshold (source: top hat, minimum width: 10, maximum width: 800, intensity above local background: 500), filter mask (filter type: minimum area filter, minimum value: 500). […]

[2] = system: hSSPN-Luciferase reporter cells (human sarcospan promoter reporter in C2C12); experiment: hSSPN-Luciferase reporter assay (Bright-Glo); details: doses between 3.9 nm to 1 μM, 48 hours (FIG. 10b)
Procedure: as §1
hSSPN-Luciferase myoblasts were cultured as described above. After 48 hours of treatment, plates were allowed to equilibrate to room temperature before the media was aspirated using an EL406 combination washer dispenser at room temperature. Bright-Glo luciferase assay system reagent (Promega) and differentiation media were added to cells at a 1:2 dilution using a Multidrop 384. After a 3-minute incubation at room temperature, luminescence signal was quantified using an Envision plate reader (PerkinElmer). The relative luminescence units were analyzed to determine fold change of treated over vehicle treated cells.
Cells were treated for 48 hours beginning at day 2 of differentiation with DMSO (vehicle control, ATCC), felodipine (Sigma), nilvadipine (Sigma), alloxazine (Sigma), GW5074 (Sigma), methylthioadenosine (Santa Cruz Biotechnology), or ezutromid (Cayman Chemicals) diluted in cell type specific differentiation media at doses listed in the figures. For gene expression studies, each treatment was performed in duplicate. For protein studies, each treatment was performed with single or double replicates.

[3] = system: hSSPN-EGFP myotubes (human sarcospan promoter reporter in C2C12); experiment: hSSPN-EGFP reporter myotube assay (high-content imaging); details: for hSSPN-EGFP reporter activity, counterscreen: doses between 3.9 nm to 1 μM, 48 hours (FIG. 10a); for hit call in an earlier assay: no details given
SSPN, sarcospan = experiment: SSPN gene expression by qPCR in C2C12 wild-type myotubes; details: 48h, normalized to GAPDH, n=2 (FIG. 11b), felodipine 10 μM
Procedure: (§2) RNA from myotubes treated for 48 hours was extracted from cells using Trizol-based (Thermo Fisher Scientific) phase separation. RNA concentrations were determined using a NanoDrop 1000 (Thermo Fisher Scientific) and 750 ng of RNA in a 20 μl reaction was reverse transcribed using iScript cDNA synthesis (Bio-Rad) with the following cycling conditions: 25° C. for 5 minutes, 42° C. for 30 minutes, 85° C. for 5 minutes. For quantitative PCR, SsoFast EvaGreen Supermix (Bio-Rad), 400 nM of each optimized forward and reverse primer (for primer descriptions see Table 1), and cDNA corresponding to 37.5 ng RNA were used to amplify cDNA measured by Applied Biosystems 7300 (Thermo Fisher Scientific) with the following reaction conditions: 55° C. for 2 minutes, 95° C. for 2 minutes, 40 cycles of 95° C. for 10 seconds and 62° C. for 30 seconds, and dissociation stage. Each sample was run in triplicate. Data was analyzed using the ddCT method and normalized to reference gene, GAPDH or β-actin, with vehicle-treated samples serving as the calibrator (relative expression of vehicle control=1). C2C12 cells (American Type Culture Collection) were grown at 37° C. with 5% CO2 in growth media containing DMEM (Gibco) with 20% FBS (Sigma-Aldrich). Upon reaching confluency, the media was replaced with differentiation media containing DMEM with 2% horse serum (Sigma-Aldrich). Conditionally immortalized H2K mdx myoblast cells with a nonsense mutation in exon 23 of dystrophin were a gift from Terrance Partridge, Ph.D. (Children's National Medical Center, Washington, D.C.). Cells were allowed to proliferate on 0.01% gelatin (Sigma-Aldrich) coated plates at 33° C. with 5% CO2 with growth media containing DMEM, 20% HI-FBS (Invitrogen), 2% L-glutamine (Sigma-Aldrich), 2% chicken embryo extract (Accurate Chemical), 1% penicillin-streptomycin (Sigma-Aldrich), and 20U/ml of fresh interferon gamma (Gibco). For differentiation, H2K mdx myoblasts were seeded on plates coated with 0.1 mg/ml matrigel (Corning) diluted in DMEM and grown in proliferation conditions. […]

UTRN, utrophin = experiment: UTRN gene expression by qPCR in C2C12 wild-type myotubes; details: C2C12 myotubes, 48h, normalized to GAPDH, n=2 (FIG. 11a); felodipine 10 μM
Procedure: as §2, with “(Sigma-Aldrich).” for “(Sigma-Aldrich). Conditionally immortalized H2K mdx myoblast cells with a nonsense mutation in exon 23 of dystrophin were a gift from Terrance Partridge, Ph.D. (Children's National Medical Center, Washington, D.C.). Cells were allowed to proliferate on 0.01% gelatin (Sigma-Aldrich) coated plates at 33° C. with 5% CO2 with growth media containing DMEM, 20% HI-FBS (Invitrogen), 2% L-glutamine (Sigma-Aldrich), 2% chicken embryo extract (Accurate Chemical), 1% penicillin-streptomycin (Sigma-Aldrich), and 20U/ml of fresh interferon gamma (Gibco). For differentiation, H2K mdx myoblasts were seeded on plates coated with 0.1 mg/ml matrigel (Corning) diluted in DMEM and grown in proliferation conditions.”

O=c1[nH]c(=O)c2nc3ccccc3nc2[nH]1 [Alloxazine, 1H-benzo[g]pteridine-2,4-dione]
fluorescence intensity over vehicle, primary screen hit call [1]: hits
hSSPN-EGFP RFU, Plate 1 [1]: 1.0 RFU
hSSPN-EGFP RFU, Plate 2 [1]: 1.1 RFU
hSSPN-Luciferase reporter activity, counterscreen [2]: increased activity
hSSPN-EGFP reporter activity, counterscreen [3]: increased activity

COC(=O)C1=C(C)NC(C)=C(C(=O)OC)C1c1ccccc1[N+](=O)[O-] [Nifedipine, dimethyl 2,6-dimethyl-4-(2-nitrophenyl)-1,4-dihydropyridine-3,5-dicarboxylate]
fluorescence intensity over vehicle, primary screen hit call [1]: hits
hSSPN-EGFP RFU, Plate 1 [1]: 1.3 RFU
hSSPN-EGFP RFU, Plate 2 [1]: 1.0 RFU

COC(=O)C1=C(C#N)NC(C)=C(C(=O)OC(C)C)C1c1cccc([N+](=O)[O-])c1 (centres unmarked) [Nilvadipine, 3-O-methyl 5-O-propan-2-yl 2-cyano-6-methyl-4-(3-nitrophenyl)-1,4-dihydropyridine-3,5-dicarboxylate]
fluorescence intensity over vehicle, primary screen hit call [1]: hits
hSSPN-EGFP RFU, Plate 1 [1]: 1.6 RFU
hSSPN-EGFP RFU, Plate 2 [1]: 1.5 RFU
hSSPN-Luciferase reporter activity, counterscreen [2]: increased activity
hSSPN-EGFP reporter activity, counterscreen [3]: increased activity

O=C1Nc2ccc(I)cc2/C1=C/c1cc(Br)c(O)c(Br)c1 [GW5074, (3Z)-3-[(3,5-dibromo-4-hydroxyphenyl)methylidene]-5-iodo-1H-indol-2-one]
fluorescence intensity over vehicle, primary screen hit call [1]: hits
hSSPN-EGFP RFU, Plate 1 [1]: 1.2 RFU
hSSPN-EGFP RFU, Plate 2 [1]: 1.2 RFU
hSSPN-Luciferase reporter activity, counterscreen [2]: increased activity
hSSPN-EGFP reporter activity, counterscreen [3]: increased activity

CCOC(=O)C1=C(C)NC(C)=C(C(=O)OCC)C1c1ccccc1/C=C/C(=O)OC(C)(C)C [Lacidipine, diethyl 2,6-dimethyl-4-[2-[(E)-3-[(2-methylpropan-2-yl)oxy]-3-oxoprop-1-enyl]phenyl]-1,4-dihydropyridine-3,5-dicarboxylate]
fluorescence intensity over vehicle, primary screen hit call [1]: hits
hSSPN-EGFP RFU, Plate 1 [1]: 1.3 RFU
hSSPN-EGFP RFU, Plate 2 [1]: 1.2 RFU

COC(=O)N=N/C=C1\C=[N+]([O-])c2ccccc2N1O [Carbodox, methyl N-[(E)-(1-hydroxy-4-oxidoquinoxalin-4-ium-2-ylidene)methyl]iminocarbamate]
hSSPN-EGFP RFU, Plate 1 [1]: 1.1 RFU
hSSPN-EGFP RFU, Plate 2 [1]: 1.1 RFU

CCCCN1CCCC1CNC(=O)c1cc(C#N)c2ccccc2c1OC (centres unmarked) [Nafadotride, N-[(1-butylpyrrolidin-2-yl)methyl]-4-cyano-1-methoxynaphthalene-2-carboxamide]
hSSPN-EGFP RFU, Plate 1 [1]: 1.1 RFU
hSSPN-EGFP RFU, Plate 2 [1]: 1.0 RFU

CCS(=O)(=O)c1ccc2oc(-c3ccc4ccccc4c3)nc2c1 [ezutromid]
SSPN gene expression relative to vehicle (SSPN, sarcospan): did not significantly increase SSPN gene expression; also recorded: did not significantly increase sarcospan levels
UTRN gene expression relative to vehicle (UTRN, utrophin): did not significantly increase UTRN levels; also recorded: did not increase utrophin gene expression

COC(=O)C1=C(C)NC(C)=C(C(=O)OC(C)C)C1c1cccc2nonc12 (centres unmarked) [Isradipine, 3-O-methyl 5-O-propan-2-yl 4-(2,1,3-benzoxadiazol-4-yl)-2,6-dimethyl-1,4-dihydropyridine-3,5-dicarboxylate]
fluorescence intensity over vehicle, primary screen hit call [1]: hits
hSSPN-EGFP RFU, Plate 1 [1]: 1.5 RFU
hSSPN-EGFP RFU, Plate 2 [1]: 1.4 RFU

CC(=O)OC1CN2CCC1CC2 (centres unmarked) [Aceclidine, 1-Azabicyclo[2.2.2]oct-3-yl acetate]
hSSPN-EGFP RFU, Plate 1 [1]: 1.1 RFU
hSSPN-EGFP RFU, Plate 2 [1]: 1.1 RFU

CC[n+]1c(C=CC=C2N(C)c3ccccc3C2(C)C)sc2ccccc21.[I-] [AC-93253, 2-[3-(1,3-Dihydro-1,3,3-trimethyl-2H-indol-2-ylidene)-1-propenyl]-3-ethyl-benzothiazolium iodide]
hit call in an earlier assay [3]: among the hits

CC(C)NCC(O)c1ccc(O)c(O)c1 (centres unmarked) [Isoproterenol, 4-[1-hydroxy-2-(propan-2-ylamino)ethyl]benzene-1,2-diol]
fluorescence intensity over vehicle, primary screen hit call [1]: hits
hSSPN-EGFP RFU, Plate 1 [1]: 1.1 RFU
hSSPN-EGFP RFU, Plate 2 [1]: 1.1 RFU

C[C@]12CC[C@H]3[C@@H](CCC4=CC(=O)CC[C@@H]43)[C@@H]1CC[C@@H]2O [Nandrolone, (8R,9S,10R,13 S,14S,17S)-17-hydroxy-13-methyl-2,6,7,8,9,10,11,12,14,15,16,17-dodecahydro-1H-cyclopenta[a]phenanthren-3-one]
fluorescence intensity over vehicle, primary screen hit call [1]: hits
hSSPN-EGFP RFU, Plate 1 [1]: 1.2 RFU
hSSPN-EGFP RFU, Plate 2 [1]: 1.1 RFU

Nc1nc(=O)c2ncn(COCCO)c2[nH]1 [Acyclovir, 2-amino-9-(2-hydroxyethoxymethyl)-3H-purin-6-one]
hSSPN-EGFP RFU, Plate 1 [1]: 0.9 RFU
hSSPN-EGFP RFU, Plate 2 [1]: 1.0 RFU

CSC[C@H]1O[C@@H](n2cnc3c(N)ncnc32)[C@H](O)[C@@H]1O [methylthioadenosine, (2R,3R,4S,5S)-2-(6-aminopurin-9-yl)-5-(methylsulfanylmethyl)oxolane-3,4-diol]
hSSPN-Luciferase reporter activity, counterscreen [2]: increased activity
hSSPN-EGFP reporter activity, counterscreen [3]: increased activity
hit call in an earlier assay [3]: among the hits
